# Experimental data reported in patent US8084466B2, “Bicyclic heteroaryl-substituted imidazoles as modulators of the histamine H4 receptor” (Janssen Pharmaceutica NV, priority 2007, dated 2011).
# pKi: −log10 of the molar value.
# Target: T1, human histamine H4 receptor (Homo sapiens, UniProt Q9H3N8)
# T1 construct: expressed in transfected cells; host or cells: SK-N-MC cells or COS7 cells, transient transfection with pH4R; cell membranes
# Assay: Binding Assay on Recombinant Human Histamine H4 Receptor
# Conditions: competition binding with 3H-histamine (5 nM; KD 5 nM), membranes of SK-N-MC or COS7 cells expressing human H4 receptor; average of results; > = highest value tested
# Description: Biological Methods: Binding Assay on Recombinant Human Histamine H4 Receptor
# SK-N-MC cells or COS7 cells were transiently transfected with pH4R and grown in 150 cm^2 tissue culture dishes. Cells were washed with saline solution, scraped with a cell scraper and collected by centrifugation (1000 rpm, 5 min). Cell membranes were prepared by homogenization of the cell pellet in 20 mM Tris-HCl with a polytron tissue homogenizer for 10 sec at high speed. Homogenate was centrifuged at 1000 rpm for 5 min at 4° C. The supernatant was then collected and centrifuged at 20,000×g for 25 min at 4° C. The final pellet was resuspended in 50 mM Tris-HCl. Cell membranes were incubated with ^3H-histamine (5-70 nM) in the presence or absence of excess histamine (10,000 nM). Incubation occurred at room temperature for […]. Membranes were harvested by rapid filtration over Whatman GF/C filters and washed 4 times with ice-cold 50 mM Tris HCl. Filters were then dried, mixed with scintillant and counted for radioactivity. SK-N-MC or COS7 cells expressing human histamine H4 receptor were used to measure the affinity of binding of other compounds and their ability to displace ^3H-ligand binding by incubating the above-described reaction in the presence of various concentrations of inhibitor or compound to be tested. For competition binding studies using ^3H-histamine, Ki values were calculated, based on an experimentally determined KD value of 5 nM and a ligand concentration of 5 nM, according to Y.-C.
row,pKi,SMILES
1,5.78,"CC(C)(C)c1ccc2[nH]c(-c3ccc4c(ccn4CCCN4CCNCC4)c3)nc2c1 [Example 63, 5-tert-Butyl-2-[1-(3-piperazin-1-yl-propyl)-1H-indol-5-yl]-1H-benzoimidazole]"
2,5.82,"Clc1ccc2[nH]c(-c3ccc4c(ccn4CCCN4CCNCC4)c3)nc2c1 [Example 64, 5-Chloro-2-[1-(3-piperazin-1-yl-propyl)-1H-indol-5-yl]-1H-benzoimidazole]"
3,6.84,"CN1CCN(CCCn2ccc3cc(-c4nc5cc(Cl)ccc5[nH]4)ccc32)CC1 [Example 65, 5-Chloro-2-{1-[3-(4-methyl-piperazin-1-yl)-propyl]-1H-indol-5-yl}-1H-benzoimidazole]"
4,5.93,"Cc1cccc2[nH]c(-c3cccc4c3ccn4CCCCC3CCNCC3)nc12 [Example 66, 4-Methyl-2-[1-(4-piperidin-4-yl-butyl)-1H-indol-4-yl]-1H-benzoimidazole]"
5,6.74,"CN1CCC(CCCCn2ccc3c(-c4nc5cc(F)c(F)cc5[nH]4)cccc32)CC1 [Example 67, 5,6-Difluoro-2-{1-[4-(1-methyl-piperidin-4-yl)-butyl]-1H-indol-4-yl}-1H-1 5 benzoimidazole]"
6,6.46,"CN1CCC(CCCCn2ccc3c(-c4nc5cc(Cl)ccc5[nH]4)cccc32)CC1 [Example 68, 5-Chloro-2-{1-[4-(1-methyl-piperidin-4-yl)-butyl]-1H-indol-4-yl}-1H-benzoimidazole]"
7,6.49,"CN1CCC(CCCCn2ccc3c(-c4nc5cc(F)ccc5[nH]4)cccc32)CC1 [Example 69, 5-Fluoro-2-{1-[4-(1-methyl-piperidin-4-yl)-butyl]-1H-indol-4-yl}-1H-benzoimidazole]"
8,6.99,"CN1CCC(CCCCn2ccc3c(-c4nc5c(F)cc(F)cc5[nH]4)cccc32)CC1 [Example 70, 4,6-Difluoro-2-{1-[4-(1-methyl-piperidin-4-yl)-butyl]-1H-indol-4-yl}-1H-benzoimidazole]"
9,6.10,"CN1CCC(CCCCn2ccc3c(-c4nc5ccc6ccccc6c5[nH]4)cccc32)CC1 [Example 71, 2-{1-[4-(1-Methyl-piperidin-4-yl)-butyl]-1H-indol-4-yl}-1H-naphtho[1,2-d]imidazole]"
10,6.26,"CN1CCC(CCCCn2cc(Cl)c3c(-c4nc5cccc(C(=O)c6ccccc6)c5[nH]4)cccc32)CC1 [Example 72, (2-{3-Chloro-1-[4-(1-methyl-piperidin-4-yl)-butyl]-1H-indol-4-yl}-3H-benzoimidazol-4-yl)-phenyl-methanone]"
11,5.77,"Cc1ccc2[nH]c(-c3cccc4c3c(Cl)cn4CCCCC3CCNCC3)nc2c1C [Example 73, 2-[3-Chloro-1-(4-piperidin-4-yl-butyl)-1H-indol-4-yl]-4,5-dimethyl-1H-benzoimidazole]"
12,5.78,"Cc1ccc2[nH]c(-c3cccc4c3c(Cl)cn4CCCCC3CCN(C)CC3)nc2c1C [Example 74, 2-{3-Chloro-1-[4-(1-methyl-piperidin-4-yl)-butyl]-1H-indol-4-yl}-4,5-dimethyl-1H-benzoimidazole]"
13,6.00,"CN1CCC(CCCCn2cc(Cl)c3c(-c4nc5c(F)c(F)ccc5[nH]4)cccc32)CC1 [Example 75, 2-{3-Chloro-1-[4-(1-methyl-piperidin-4-yl)-butyl]-1H-indol-4-yl}-4,5-difluoro-1H-benzoimidazole]"
14,5.71,"c1cc(-c2nc3cc4c(cc3[nH]2)OCO4)c2ccn(CCCCC3CCNCC3)c2c1 [Example 76, 6-[1-(4-Piperidin-4-yl-butyl)-1H-indol-4-yl]-5H-[1,3]dioxolo[4′,5′:4,5]-benzo[1,2-d]imidazole]"
15,5.78,"O=C(c1ccccc1)c1ccc2[nH]c(-c3cccc4c3ccn4CCCCC3CCNCC3)nc2c1 [Example 77, Phenyl-{2-[1-(4-piperidin-4-yl-butyl)-1H-indol-4-yl]-1H-benzoimidazol-5-yl}-methanone]"
16,6.81,"Cc1ccc2[nH]c(-c3cccc4c3ccn4CCCCC3CCN(C)CC3)nc2c1C [Example 78, 4,5-Dimethyl-2-{1-[4-(1-methyl-piperidin-4-yl)-butyl]-1H-indol-4-yl}-1H-benzoimidazole]"
17,6.64,"Cc1[nH]c(-c2ccc3c(ccn3CCCN3CCN(C)CC3)c2)nc1-c1cccc(C(F)(F)F)c1 [Example 79, 1-[3-(4-Methyl-piperazin-1-yl)-propyl]-5-[5-methyl-4-(3-trifluoromethyl-phenyl)-1H-imidazol-2-yl]-1H-indole]"
18,5.70,"Cc1[nH]c(-c2ccc3c(ccn3CCCN3CCN(C)CC3)c2)nc1-c1ccc(Cl)cc1 [Example 80, 5-[4-(4-Chloro-phenyl)-5-methyl-1H-imidazol-2-yl]-1-[3-(4-methyl-piperazin-1-yl)-propyl]-1H-indole]"

row,pKi,SMILES
1,6.02,"CCCc1[nH]c(-c2ccc3c(ncn3CCCC3CCN(C)CC3)c2C)nc1C [Example 81, 4-Methyl-1-[3-(1-methyl-piperidin-4-yl)-propyl]-5-(4-methyl-5-propyl-1H-imidazol-2-yl)-1H-benzoimidazole]"
2,9.52,"Cc1nc(-c2ccc3c(ncn3CCCC3CCN(C)CC3)c2C)[nH]c1-c1ccc(C(F)(F)F)cc1 [Example 82, 4-Methyl-1-[3-(1-methyl-piperidin-4-yl)-propyl]-5-[4-methyl-5-(4-trifluoromethyl-phenyl)-1H-imidazol-2-yl]-1H-benzoimidazole]"
3,9.52,"Cc1nc(-c2ccc3c(ncn3CCCC3CCN(C)CC3)c2C)[nH]c1-c1cc(Cl)cc(Cl)c1 [Example 83, 5-[5-(3,5-Dichloro-phenyl)-4-methyl-1H-imidazol-2-yl]-4-methyl-1-[3-(1-methyl-piperidin-4-yl)-propyl]-1H-benzoimidazole]"
4,8.10,"Cc1c(-c2nc(C(F)(F)F)c(-c3ccccc3)[nH]2)ccc2c1ncn2CCCC1CCN(C)CC1 [Example 84, 4-Methyl-1-[3-(1-methyl-piperidin-4-yl)-propyl]-5-(5-phenyl-4-trifluoromethyl-1H-imidazol-2-yl)-1H-benzoimidazole]"
5,8.30,Cc1ccc(-c2nc(-c3ccc4c(ncn4CCCC4CCN(C)CC4)c3C)[nH]c2-c2ccc(Cl)cc2)cc1 [Example 85]
6,< 5.00,"Cc1c(F)ccc2[nH]c(-c3ccc4c(c3)c(CN(C)C)cn4CCCC3CCN(C)CC3)nc12 [Example 86, {5-(5-Fluoro-4-methyl-1H-benzoimidazol-2-yl)-1-[3-(1-methyl-piperidin-4-yl)-propyl]-1H-indol-3-ylmethyl}-dimethyl-amine]"
7,5.74,"Cc1c(F)ccc2[nH]c(-c3ccc4c(c3)c(Cl)cn4CCCC3CCNCC3)nc12 [Example 87, 2-[3-Chloro-1-(3-piperidin-4-yl-propyl)-1H-indol-5-yl]-5-fluoro-4-methyl-1H-benzoimidazole]"
8,< 5.00,"Cc1c(F)ccc2[nH]c(-c3ccc4c(c3)c(Cl)cn4CCCC3CCN(C)CC3)nc12 [Example 88, 2-{3-Chloro-1-[3-(1-methyl-piperidin-4-yl)-propyl]-1H-indol-5-yl}-5-fluoro-4-methyl-1H-benzoimidazole]"
9,5.70,"Cc1cc(C)c2nc(-c3ccc4c(c3)c(C)c(C)n4CCCC3CCNCC3)[nH]c2c1 [Example 89, 2-[2,3-Dimethyl-1-(3-piperidin-4-yl-propyl)-1H-indol-5-yl]-4,6-dimethyl-1H-benzoimidazole]"
10,5.70,"Cc1c(C)n(CCCC2CCNCC2)c2ccc(-c3nc4c(C)c(F)ccc4[nH]3)cc12 [Example 90, 2-[2,3-Dimethyl-1-(3-piperidin-4-yl-propyl)-1H-indol-5-yl]-5-fluoro-4-methyl-1H-benzoimidazole]"
11,6.12,"Cc1c(F)ccc2[nH]c(-c3cnc4c(ccn4CCCC4CCNCC4)c3)nc12 [Example 91, 5-Fluoro-4-methyl-2-[1-(3-piperidin-4-yl-propyl)-1H-pyrrolo[2,3-b]pyridin-5-yl]-1H-benzoimidazole]"
12,6.45,CN1CCC(CCCn2ccc3cc(-c4nc5cc(C(C)(C)C)ccc5[nH]4)cnc32)CC1 [Example 92]
13,5.96,"Cc1c(F)ccc2[nH]c(-c3ccc4c(c3)CCN4CCCC3CCNCC3)nc12 [Example 93, 5-Fluoro-4-methyl-2-[1-(3-piperidin-4-yl-propyl)-2,3-dihydro-1H-indol-5-yl]-1H-benzoimidazole]"
14,6.22,"Clc1ccc2[nH]c(-c3ccc4c(c3)CCN4CCCC3CCNCC3)nc2c1 [Example 94, 5-Chloro-2-[1-(3-piperidin-4-yl-propyl)-2,3-dihydro-1H-indol-5-yl]-1H-benzoimidazole]"
15,6.41,"Cc1cccc2[nH]c(-c3ccc4c(c3)CCN4CCCC3CCNCC3)nc12 [Example 95, 4-Methyl-2-[1-(3-piperidin-4-yl-propyl)-2,3-dihydro-1H-indol-5-yl]-1H-benzoimidazole]"
16,6.99,"Cc1c(F)ccc2[nH]c(-c3ccc4c(c3)CCN4CCCC3CCN(C)CC3)nc12 [Example 96, 5-Fluoro-4-methyl-2-{1-[3-(1-methyl-piperidin-4-yl)-propyl]-2,3-dihydro-1H-indol-5-yl}-1H-benzoimidazole]"
17,7.37,"CN1CCC(CCCN2CCc3cc(-c4nc5cc(Cl)ccc5[nH]4)ccc32)CC1 [Example 97, 5-Chloro-2-{1-[3-(1-methyl-piperidin-4-yl)-propyl]-2,3-dihydro-1H-indol-5-yl}-1H-benzoimidazole]"
